Results as given in ChEMBL document CHEMBL1201861, “Genomics of Drug Sensitity in Cancer screening data, Wellcome Trust Sanger Institute”.

Assays:
[1] = test system: LB647-SCLC; experiment: cells; format: functional, cell-based, Homo sapiens; settings: Homo sapiens, LB647-SCLC;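 also: cell growth inhibition, read out by a viability assay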
Description: SANGER: Inhibition of human LB647-SCLC cell growth in a cell viability assay.

[2] = test system: IM-9; experiment: SANGER: Inhibition of human IM-9 cell growth in a cell viability assay.; format: functional, cell-based; settings: Homo sapiens, IM-9
[3] = test system: EB-3; experiment: cells; format: functional, cell-based, Homo sapiens; settings: Homo sapiens, EB-3;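 also: human EB-3 cells, growth inhibition read out via a cell viability assay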
Description: SANGER: Inhibition of human EB-3 cell growth in a cell viability assay.

[4] = test system: NCI-H2171; experiment: cells; format: functional, cell-based, Homo sapiens; settings: Homo sapiens, NCI-H2171;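 also: growth inhibition of human NCI-H2171 cells, read out by a cell viability assay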
Description: SANGER: Inhibition of human NCI-H2171 cell growth in a cell viability assay.

[5] = test system: U-698-M; experiment: cells; format: functional, cell-based, Homo sapiens; settings: Homo sapiens, U-698-M
Description: SANGER: Inhibition of human U-698-M cell growth in a cell viability assay.

[6] = test system: YT; experiment: cells; format: functional, cell-based, Homo sapiens; settings: Homo sapiens, YT
Description: SANGER: Inhibition of human YT cell growth in a cell viability assay.

[7] = test system: NCI-H64; experiment: cells; format: functional, cell-based, Homo sapiens; settings: Homo sapiens, NCI-H64;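 also: growth inhibition of NCI-H64 cells, read out with a cell viability assay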
Description: SANGER: Inhibition of human NCI-H64 cell growth in a cell viability assay.

[8] = test system: TALL-1; experiment: cells; format: functional, cell-based, Homo sapiens; settings: Homo sapiens, TALL-1;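 also: growth inhibition of cultured human TALL-1 cells, read out by a cell viability assay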
Description: SANGER: Inhibition of human TALL-1 cell growth in a cell viability assay.

[9] = test system: MHH-CALL-2; experiment: cells; format: functional, cell-based, Homo sapiens; settings: Homo sapiens, MHH-CALL-2;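 also: growth inhibition of the cell line, read out in a cell viability assay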
Description: SANGER: Inhibition of human MHH-CALL-2 cell growth in a cell viability assay.

[10] = test system: NCI-H2081; experiment: cells; format: functional, cell-based, Homo sapiens; settings: Homo sapiens, NCI-H2081;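 also: growth inhibition of human NCI-H2081 cells, read out with a cell viability assay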
Description: SANGER: Inhibition of human NCI-H2081 cell growth in a cell viability assay.

[11] = test system: CMK; experiment: cells; format: functional, cell-based, Homo sapiens; settings: Homo sapiens, CMK;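 also: growth inhibition of CMK cells, read out as cell viability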
Description: SANGER: Inhibition of human CMK cell growth in a cell viability assay.

[12] = test system: CAL-148; experiment: cells; format: functional, cell-based, Homo sapiens; settings: Homo sapiens, CAL-148
Description: SANGER: Inhibition of human CAL-148 cell growth in a cell viability assay.

[13] = test system: ST486; experiment: SANGER: Inhibition of human ST486 cell growth in a cell viability assay.; format: functional, cell-based; settings: Homo sapiens, ST486
[14] = test system: NCI-H2227; experiment: cells; format: functional, cell-based, Homo sapiens; settings: Homo sapiens, NCI-H2227;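 also: growth inhibition of the human cell line, read out with a cell viability assay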
Description: SANGER: Inhibition of human NCI-H2227 cell growth in a cell viability assay.

[15] = test system: NB14; experiment: cells; format: functional, cell-based, Homo sapiens; settings: Homo sapiens, NB14;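 also: growth inhibition of NB14 cells measured with a cell viability assay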
Description: SANGER: Inhibition of human NB14 cell growth in a cell viability assay.

Compound	IC50 [1] [µM]	IC50 [2] [µM]	IC50 [3] [µM]	IC50 [4] [µM]	IC50 [5] [µM]	IC50 [6] [µM]	IC50 [7] [µM]	IC50 [8] [µM]	IC50 [9] [µM]	IC50 [10] [µM]	IC50 [11] [µM]	IC50 [12] [µM]	IC50 [13] [µM]	IC50 [14] [µM]	IC50 [15] [µM]
COc1cc2ncn(-c3cc(OCc4ccccc4S(C)(=O)=O)c(C#N)s3)c2cc1OC [GSK-319347A]	> 5	> 5	> 5	> 5	> 5	> 5	> 5	> 5	> 5	> 5	> 5	> 5	> 5	> 5	> 5
COc1cc2ncn(-c3cc(OCc4ccccc4C(F)(F)F)c(C(N)=O)s3)c2cc1OC [GW843682X]	0.0189	> 0.256	> 0.256	> 0.256	> 0.256	> 0.256	> 0.256	0.013	> 0.256	> 0.256	0.036	0.0907	0.0204		> 0.256
CC(=O)O[C@H]1C(=O)[C@@]2(C)[C@H]([C@H](OC(=O)c3ccccc3)[C@]3(O)C[C@H](OC(=O)[C@H](O)[C@@H](NC(=O)c4ccccc4)c4ccccc4)C(C)=C1C3(C)C)[C@]1(OC(C)=O)CO[C@@H]1C[C@@H]2O [PACLITAXEL]	0.0105	> 0.102	> 0.102	> 0.102	> 0.102	> 0.102	0.0386	0.0504	0.0356	> 0.102	0.0273	0.0544	0.012		> 0.102
N[C@@H](CSC(c1ccccc1)(c1ccccc1)c1ccccc1)C(=O)O [S-TRITYL-L-CYSTEINE]	> 5.12	> 5.12	> 5.12	> 5.12	> 5.12	> 5.12	3.48	2.53	> 5.12	> 5.12	1.56	4.35	2.09		> 5.12
CC[C@H](CO)Nc1nc(NCc2ccccc2)c2ncn(C(C)C)c2n1 [SELICICLIB]	> 16	> 16	> 16	> 16	> 16	> 16	> 16	> 16	> 16	> 16	> 16	> 16	10.4	> 16	> 16
CCN(CC)CCNC(=O)c1c(C)[nH]c(/C=C2\C(=O)Nc3ccc(F)cc32)c1C [SUNITINIB]	> 8	> 8	> 8	> 8	> 8	> 8	> 8	> 8	5.77	> 8	1.96	> 8	6.35		> 8
